The values below come from ChEMBL document CHEMBL1201862, “PubChem BioAssay data set” (2004).

Test systems include U-251; PC-3; HCT-15; SF-539; HCC 2998; SK-OV-3; SK-MEL-5; SN12C; HT-29; Hs-578T; EKVX; A549; LOX IMVI; HOP-92; OVCAR-5; MDA-MB-231; DU-145; Malme-3M; ACHN; UACC-257.
Common to all, as to assay: growth of human tumour cells (NCI), 48 h

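Compound exposure: 48 hours, 5 concentrations, 96-well plates. GI50 = concentration required for 50% inhibition of growth.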 Active and inactive are the calls of the source. Cut-off read from the data, not from the text of the source: active = GI50 up to about 1.1 µM and inactive = higher.

As to `N#CCCN(CCC#N)c1ccc(/C=C2\SC(=S)NC2=O)cc1`, the GI50 in the assay on U-251 is 20.3 µM (inactive); in the assay with PC-3, > 100 µM (inactive); with HCT-15, more than 100 µM; in the assay with SF-539, > 100 µM (inactive); in the assay on HCC 2998 it was > 100 µM (inactive); in the assay on SK-OV-3, > 100 µM (inactive). Besides, the GI50 with SK-MEL-5, in the assay on SN12C, in the assay on HT-29, in the assay on Hs-578T, in the assay on EKVX and in the assay with A549 was > 100 µM (inactive) each time. Besides, the GI50 is 34.6 µM (inactive) in the assay on LOX IMVI; 75.9 µM (inactive) with HOP-92; > 100 µM (inactive) in the assay with OVCAR-5; 30.3 µM (inactive) in the assay on MDA-MB-231; > 100 µM (inactive) with DU-145; > 100 µM (inactive) with Malme-3M. The GI50 with ACHN is 41.5 µM (inactive); in the assay with UACC-257, > 100 µM (inactive).

As to `CC(O)c1cc2c(s1)C(=O)c1c(C(C)O)csc1C2=O` (stereo not given), the GI50 is 0.316 µM (active) in the assay on U-251; 0.117 µM (active) in the assay with PC-3; 0.133 µM in the assay with HCT-15; 0.21 µM (active) with SF-539; 0.351 µM (active) with HCC 2998; 0.401 µM (active) in the assay on SK-OV-3. Also, the GI50 was 0.0233 µM (active) in the assay on SK-MEL-5; 0.138 µM (active) with SN12C; 0.586 µM (active) in the assay with HT-29; 0.318 µM (active) with Hs-578T; 0.364 µM (active) with EKVX; 0.184 µM (active) in the assay with A549. Moreover, the GI50 in the assay with LOX IMVI is 0.075 µM (active); in the assay with HOP-92 it was 0.248 µM (active); in the assay on OVCAR-5, 0.277 µM (active); with MDA-MB-231, 0.063 µM (active); in the assay with DU-145, 0.119 µM (active); in the assay on Malme-3M, 0.0329 µM (active). Besides, the GI50 in the assay with ACHN was 0.261 µM (active); in the assay with UACC-257 it was 0.0803 µM (active).

Take `COc1cc2c(cc1OC)[C@H](C)N1CCc3cc(OC)c(OC)cc3[C@@H]1C2`: the GI50 with U-251 is > 100 µM (inactive); with PC-3, > 100 µM (inactive); in the assay with HCT-15, more than 100 µM; in the assay with SF-539 it was > 100 µM (inactive); in the assay on HCC 2998, > 100 µM (inactive); with SK-OV-3, > 100 µM (inactive). Moreover, the GI50 with SK-MEL-5, with SN12C, in the assay on HT-29, in the assay on Hs-578T, in the assay on EKVX and in the assay on A549 was > 100 µM (inactive) each time. Besides, the GI50 with LOX IMVI, in the assay on HOP-92, with OVCAR-5, with MDA-MB-231, with DU-145 and with Malme-3M was > 100 µM (inactive) in each case. Besides, the GI50 in the assay with ACHN and in the assay with UACC-257 was > 100 µM (inactive) each time.

For `C[C@H]1CC[C@@H]2[C@@H](C)[C@H]3[C@H](C[C@H]4[C@@H]5CC=C6C[C@@H](O)CC[C@]6(C)[C@H]5CC[C@]34C)N2C1`, the GI50 with U-251 is 31.8 µM (inactive); in the assay with PC-3, 50.9 µM (inactive); in the assay on HCT-15, more than 100 µM; in the assay with SF-539 it was 65.9 µM (inactive); in the assay on HCC 2998, 97.1 µM (inactive); with SK-OV-3 it was > 100 µM (inactive). For the same compound, the GI50 in the assay with SK-MEL-5 was 38.3 µM (inactive); with SN12C it was > 100 µM (inactive); in the assay on HT-29, 18.6 µM (inactive); in the assay with Hs-578T, 33.3 µM (inactive); with EKVX, 36.4 µM (inactive); in the assay with A549, > 100 µM (inactive). Moreover, the GI50 was 36.1 µM (inactive) with LOX IMVI; 12.6 µM (inactive) in the assay on HOP-92; > 100 µM (inactive) with OVCAR-5; 39.4 µM (inactive) with MDA-MB-231; > 100 µM (inactive) in the assay on DU-145; > 100 µM (inactive) in the assay with Malme-3M. For the same compound, the GI50 is 59.8 µM (inactive) with ACHN and 45.1 µM (inactive) in the assay on UACC-257.

Turning to `CS(=O)(=O)OCC1CCCCCCCCCCC12SCCCS2` (stereo not given), the GI50 in the assay on U-251 was > 100 µM (inactive); in the assay on PC-3, > 100 µM (inactive); in the assay with HCT-15, more than 100 µM; in the assay with SF-539, > 100 µM (inactive); in the assay on HCC 2998 it was > 100 µM (inactive); in the assay with SK-OV-3, > 100 µM (inactive). Besides, the GI50 in the assay with SK-MEL-5, in the assay with SN12C, in the assay with HT-29, in the assay with Hs-578T, with EKVX and in the assay on A549 was > 100 µM (inactive) throughout. The GI50 with LOX IMVI, in the assay on HOP-92, in the assay with OVCAR-5, with MDA-MB-231, in the assay with DU-145 and with Malme-3M was > 100 µM (inactive) throughout. Besides, the GI50 with ACHN and in the assay on UACC-257 was > 100 µM (inactive) each time.

Consider `CC(O)c1cc2c(s1)C(=O)c1ccsc1C2=O` (stereo not given), for which the GI50 is 0.0944 µM (active) with U-251; 0.0632 µM (active) with PC-3; 0.0409 µM in the assay with HCT-15; 0.0509 µM (active) in the assay with SF-539; 0.223 µM (active) in the assay with HCC 2998; 2.7 µM (inactive) with SK-OV-3. Also, the GI50 in the assay on SK-MEL-5 was < 0.0122 µM (active); in the assay on SN12C, 0.104 µM (active); in the assay on HT-29, 0.21 µM (active); in the assay on Hs-578T, 0.107 µM (active); in the assay with EKVX, 0.229 µM (active); with A549, 0.189 µM (active). Besides, the GI50 in the assay on LOX IMVI was 0.0125 µM (active); in the assay on HOP-92 it was 0.265 µM (active); in the assay with OVCAR-5, 0.14 µM (active); in the assay on MDA-MB-231, 0.0964 µM (active); in the assay with DU-145, 0.0489 µM (active); in the assay on Malme-3M, 0.0197 µM (active). Also, the GI50 with ACHN was 0.117 µM (active); in the assay on UACC-257 it was 0.0167 µM (active).

For `O=C(O)CCC(=O)Nc1ccc2c(c1)S(=O)(=O)N(CC(=O)O)C2=O`, the GI50 in the assay with U-251 is > 100 µM (inactive); in the assay with PC-3, > 100 µM (inactive); in the assay on HCT-15, more than 100 µM; in the assay with SF-539 it was > 100 µM (inactive); in the assay with HCC 2998, > 100 µM (inactive); in the assay on SK-OV-3, > 100 µM (inactive). In addition, the GI50 in the assay with SK-MEL-5, in the assay with SN12C, with HT-29, in the assay on Hs-578T, in the assay with EKVX and with A549 was > 100 µM (inactive) in each case. In addition, the GI50 in the assay with LOX IMVI is > 100 µM (inactive); with HOP-92, > 100 µM (inactive); in the assay on OVCAR-5, > 100 µM (inactive); in the assay on MDA-MB-231 it was > 100 µM (inactive); in the assay on DU-145, > 100 µM (inactive); in the assay with Malme-3M, 39.2 µM (inactive). Moreover, the GI50 in the assay on ACHN and with UACC-257 was > 100 µM (inactive) throughout.

Regarding `C=C1C(=O)C2=CC1CCC(=O)C1(C)CCC(OC(C)=O)C(C)(C)C1CC2O` (stereo not given), the GI50 was 2.93 µM (inactive) in the assay with U-251; 7.19 µM (inactive) in the assay with PC-3; 0.552 µM in the assay on HCT-15; 2.1 µM (inactive) in the assay on SF-539; 1.95 µM (inactive) in the assay with HCC 2998; 8.95 µM (inactive) in the assay with SK-OV-3. Moreover, the GI50 is 1.82 µM (inactive) in the assay on SK-MEL-5; 2.53 µM (inactive) with SN12C; 1.35 µM (inactive) in the assay with HT-29; 3.58 µM (inactive) in the assay with Hs-578T; 3.91 µM (inactive) with EKVX; 4.38 µM (inactive) in the assay with A549. Also, the GI50 in the assay with LOX IMVI was 1.14 µM (inactive); in the assay with HOP-92, 4.22 µM (inactive); in the assay on OVCAR-5, 5.32 µM (inactive); in the assay on MDA-MB-231 it was 4.65 µM (inactive); with DU-145 it was 3.03 µM (inactive); in the assay with Malme-3M, 2.37 µM (inactive). The GI50 with ACHN is 1.12 µM (inactive); in the assay with UACC-257, 3.73 µM (inactive).

`COc1cc(Oc2nc3ccc(C(F)(F)F)cc3nc2-c2ccccc2)cc(OC)c1OC`: the GI50 with U-251 was 13 µM (inactive); in the assay on PC-3, 22.6 µM (inactive); in the assay with HCT-15, more than 100 µM; in the assay on SF-539, 19.7 µM (inactive); in the assay on HCC 2998 it was 36.2 µM (inactive); in the assay on SK-OV-3, 12.4 µM (inactive). Also, the GI50 in the assay with SK-MEL-5 is 14.5 µM (inactive); in the assay with SN12C, 37 µM (inactive); in the assay on HT-29, 21.2 µM (inactive); in the assay on Hs-578T, 21.9 µM (inactive); in the assay on EKVX, 37.8 µM (inactive); in the assay with A549, 17.1 µM (inactive). For the same compound, the GI50 in the assay on LOX IMVI is 18.4 µM (inactive); in the assay with HOP-92, 14.5 µM (inactive); with OVCAR-5, > 100 µM (inactive); with MDA-MB-231 it was 23 µM (inactive); in the assay on DU-145 it was > 100 µM (inactive); with Malme-3M it was 87.9 µM (inactive). For the same compound, the GI50 in the assay with ACHN was 11.6 µM (inactive); in the assay with UACC-257, 48.8 µM (inactive).

As for `O=Cc1cn(CCCCCCCCCCCCn2cc(C=O)c3ccccc32)c2ccccc12`, the GI50 was > 100 µM (inactive) in the assay with U-251; 33.3 µM (inactive) in the assay on PC-3; more than 100 µM in the assay on HCT-15; > 100 µM (inactive) with SF-539; > 100 µM (inactive) in the assay with HCC 2998; > 100 µM (inactive) in the assay with SK-OV-3. Moreover, the GI50 with SK-MEL-5 was 0.611 µM (active); in the assay with SN12C, > 100 µM (inactive); with HT-29 it was > 100 µM (inactive); with Hs-578T it was 4.04 µM (inactive); in the assay on EKVX, 7.53 µM (inactive); in the assay with A549, 56 µM (inactive). Also, the GI50 in the assay on LOX IMVI was > 100 µM (inactive); in the assay on HOP-92, > 100 µM (inactive); in the assay with OVCAR-5, 99.1 µM (inactive); in the assay with MDA-MB-231, > 100 µM (inactive); in the assay with DU-145, > 100 µM (inactive); in the assay with Malme-3M it was > 100 µM (inactive). Moreover, the GI50 with ACHN was 4.88 µM (inactive); in the assay with UACC-257 it was 2.47 µM (inactive).
